Results taken from patent US20230339970A1, “CASEIN KINASE 1 DELTA MODULATORS” (priority 2020, published 2023).

Key:
human CSNK1D = molecular target: T1, human CSNK1D (Homo sapiens, UniProt P48730); assay: Whole Cell nBRET CSNK1D Binding Assay; settings: living CHO cells stably expressing human CSNK1D tagged with nanoluciferase; NanoBret tracer 130 nM; 2 hours at 37 C
T1 construct: expressed in transfected cells

[1] = molecular target: T2, human recombinant GST cleaved CSNK1D (Homo sapiens, UniProt P48730); assay: Purified Enzyme Assay (ADP-Glo CSNK1D Kinase Assay); assay type: biochemical; settings: 2 nM CSNK1D; peptide substrate 150 μM; ATP 20 μM; 45 minutes at room temperature
T2 construct: GST (cleaved yes); purchased University of Dundee clone DU 19064
How it was run: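 Percent activity derived from ADP-Glo quantification of ADP produced. Reactions: compound dose-response with human recombinant GST-cleaved CSNK1D, ATP and substrate peptide PLSRTL-pS-VASLPGL, incubated 45 min at room temperature.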

T1 sequence (P48730 whole entry): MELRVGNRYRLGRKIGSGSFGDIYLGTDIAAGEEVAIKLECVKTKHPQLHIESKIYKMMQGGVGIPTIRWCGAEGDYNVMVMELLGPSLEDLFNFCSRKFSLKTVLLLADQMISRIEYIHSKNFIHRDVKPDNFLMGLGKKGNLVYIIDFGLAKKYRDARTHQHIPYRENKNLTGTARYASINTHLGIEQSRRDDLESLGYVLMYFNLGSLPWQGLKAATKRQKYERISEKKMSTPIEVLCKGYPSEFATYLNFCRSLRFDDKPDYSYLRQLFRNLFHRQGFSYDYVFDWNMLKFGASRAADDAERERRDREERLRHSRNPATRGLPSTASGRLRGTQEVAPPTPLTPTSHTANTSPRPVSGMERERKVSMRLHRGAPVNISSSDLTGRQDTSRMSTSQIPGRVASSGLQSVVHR
T2 sequence (P48730 whole entry): as above

Compound	IC50 (human CSNK1D) [nM]	IC50 [1] [nM]
[2H]C([2H])([2H])C1(C([2H])([2H])[2H])Cc2c(-c3ccnc4[nH]ncc34)c(-c3ccc(F)cc3)nn2C1 [Example 241, 4-[2-(4-Fluorophenyl)-5,5-bis(methyl-d3)-4,6-dihydropyrrolo[1,2-b]pyrazol-3-yl]-1H-pyrazolo[3,4-b]pyridine]	7	2
C[C@H]1COCc2c(-c3ccnc4[nH]ncc34)c(-c3ccc(F)cc3)nn21 (single isomer, unassigned) [Example 91, (*S)-2-(4-Fluorophenyl)-7-methyl-3-(1H-pyrazolo[3,4-b]pyridin-4-yl)-6,7-dihydro-4H-pyrazolo[5,1-c][1,4]oxazine]	151	8
Fc1ccc(-c2nn3c(c2-c2ccnc4[nH]ncc24)CO[C@@H](C2CC2)C3)nc1 (single isomer, unassigned) [Example 109, (*S)-6-Cyclopropyl-2-(5-fluoropyridin-2-yl)-3-(1H-pyrazolo[3,4-b]pyridin-4-yl)-6,7-dihydro-4H-pyrazolo[5,1-c][1,4]oxazine]	301	15
Fc1ccc(-c2nn3c(c2-c2ccnc4[nH]ncc24)OCCC3)nc1 [Example 186, 2-(5-Fluoropyridin-2-yl)-3-(1H-pyrazolo[3,4-b]pyridin-4-yl)-6,7-dihydro-5H-pyrazolo[5,1-b][1,3]oxazine]	257	9
Fc1ccc(-c2nn3c(c2-c2ccn4nccc4c2)OCCC3)nc1 [Example 440, 2-(5-Fluoropyridin-2-yl)-3-(pyrazolo[1,5-a]pyridin-5-yl)-6,7-dihydro-5H-pyrazolo[5,1-b][1,3]oxazine]	516	44
Fc1ccc(-c2nn3c(c2-c2ccnc4[nH]ncc24)CC[C@H]2C[C@H]23)cc1 (stereo in doubt) [Example 339, (5a*S,6a*R)-2-(4-Fluorophenyl)-3-(1H-pyrazolo[3,4-b]pyridin-4-yl)-5,5a,6,6a-tetrahydro-4H-cyclopropa[e]pyrazolo[1,5-a]pyridine]	7	1
CC1CCOc2c(-c3ccn4nccc4c3)c(-c3ccc(F)cn3)nn21 (stereo not drawn) [Example 446, 2-(5-Fluoropyridin-2-yl)-7-methyl-3-(pyrazolo[1,5-a]pyridin-5-yl)-6,7-dihydro-5H-pyrazolo[5,1-b][1,3]oxazine]	4340	184
Fc1ccc(-c2nn3c(c2-c2ccnc4[nH]ncc24)C[C@@H](F)C3)cc1 [Example 228, 4-[(5R)-5-Fluoro-2-(4-fluorophenyl)-5,6-dihydro-4H-pyrrolo[1,2-b]pyrazol-3-yl]-1H-pyrazolo[3,4-b]pyridine]	79	7
C[C@@]1(C(F)(F)F)Cn2nc(-c3ccc(F)cn3)c(-c3ccn4nccc4c3)c2CO1 (single isomer, unassigned) [Example 415, (*S)-2-(5-Fluoropyridin-2-yl)-6-methyl-3-(pyrazolo[1,5-a]pyridin-5-yl)-6-(trifluoromethyl)-6,7-dihydro-4H-pyrazolo[5,1-c][1,4]oxazine]	3890	264
Cc1nc2[nH]nc(C)c2c(-c2c(-c3ccc(F)cn3)nn3c2C[C@@H]2C[C@@H]23)c1F [Example 274, (4aS,5aS)-3-(5-Fluoro-3,6-dimethyl-1H-pyrazolo[3,4-b]pyridin-4-yl)-2-(5-fluoropyridin-2-yl)-4,4a,5,5a-tetrahydrocyclopropa[4,5]pyrrolo[1,2-b]pyrazole]	56	5
Cc1nc2[nH]nc(C)c2c(-c2c(-c3ccc(F)cn3)nn3c2CC[C@H]2[C@@H]3C2(F)F)c1F (single isomer, unassigned) [Example 360, (5a*S,6a*R)-6,6-Difluoro-3-(5-fluoro-3,6-dimethyl-1H-pyrazolo[3,4-b]pyridin-4-yl)-2-(5-fluoropyridin-2-yl)-5,5a,6,6a-tetrahydro-4H-cyclopropa[e]pyrazolo[1,5-a]pyridine]	70	7
Fc1ccc(-c2nn3c(c2-c2ccnc4[nH]ncc24)CCC3)cc1 [Example 4, 4-(2-(4-Fluorophenyl)-5,6-dihydro-4H-pyrrolo[1,2-b]pyrazol-3-yl)-1H-pyrazolo[3,4-b]pyridine]	22	1
Fc1ccc(-c2nn3c(c2-c2ccnc4[nH]ncc24)CC2(C3)CC2(F)F)cc1 (single isomer, unassigned) [Example 251, (*R)-1′,1′-Difluoro-2-(4-fluorophenyl)-3-(1H-pyrazolo[3,4-b]pyridin-4-yl)spiro[4,6-dihydropyrrolo[1,2-b]pyrazole-5,2′-cyclopropane]]	185	26
Fc1ccc(-c2nn3c(c2-c2ccnc4[nH]nc(Cl)c24)CC2(C3)CC2(F)F)nc1 (single isomer, unassigned) [Example 257, (*R)-3-(3-Chloro-1H-pyrazolo[3,4-b]pyridin-4-yl)-1′,1′-difluoro-2-(5-fluoro-2-pyridyl)spiro[4,6-dihydropyrrolo[1,2-b]pyrazole-5,2′-cyclopropane]]	10800	197
Fc1ccc(-c2nn3c(c2-c2ccnc4[nH]nc(Cl)c24)OCC2(CC2)C3)nc1 [Example 458, 3′-(3-Chloro-1H-pyrazolo[3,4-b]pyridin-4-yl)-2′-(5-fluoropyridin-2-yl)-5′H,7′H-spiro[cyclopropane-1,6′-pyrazolo[5,1-b][1,3]oxazine]]	7	1
CCC(=O)Nc1cc(-c2c(-c3ccc(F)cn3)nn3c2OCCC3)ccn1 [Example 439, N-(4-(2-(5-Fluoropyridin-2-yl)-6,7-dihydro-5H-pyrazolo[5,1-b][1,3]oxazin-3-yl)pyridin-2-yl)propionamide]	75	6
CCC(=O)Nc1cc(-c2c(-c3ccc(F)cn3)nn3c2COC(C)(C)C3)c(C)cn1 [Example 379, N-(4-(2-(5-Fluoropyridin-2-yl)-6,6-dimethyl-6,7-dihydro-4H-pyrazolo[5,1-c][1,4]oxazin-3-yl)-5-methylpyridin-2-yl)propionamide]	738	41
CCn1ncc2cc(-c3c(-c4ccc(F)cn4)nn4c3OCC(C)(C)C4)cnc21 [Example 452, 3-(1-Ethyl-1H-pyrazolo[3,4-b]pyridin-5-yl)-2-(5-fluoropyridin-2-yl)-6,6-dimethyl-6,7-dihydro-5H-pyrazolo[5,1-b][1,3]oxazine]	570	44

More lines, now with the values ahead:

IC50 (human CSNK1D) [nM]	IC50 [1] [nM]	Compound
6	2	Cc1cc(-c2c(-c3ccc(F)cc3)nn3c2CC2(CC2)C3)c2cn[nH]c2n1 [Example 248, 2-(4-Fluorophenyl)-3-(6-methyl-1H-pyrazolo[3,4-b]pyridin-4-yl)spiro[4,6-dihydropyrrolo[1,2-b]pyrazole-5,1′-cyclopropane]]
293	27	Fc1ccc(-c2nn3c(c2-c2ccnc4[nH]ncc24)C(F)(F)CC3)nc1 [Example 14, 4-(4,4-Difluoro-2-(5-fluoropyridin-2-yl)-5,6-dihydro-4H-pyrrolo[1,2-b]pyrazol-3-yl)-1H-pyrazolo[3,4-b]pyridine]
21	3	C[C@@]1(CF)CCc2c(-c3c(F)cnc4[nH]ncc34)c(-c3ccc(F)cn3)nn2C1 (single isomer, unassigned) [Example 292, (*R)-5-Fluoro-4-[6-(fluoromethyl)-2-(5-fluoro-2-pyridyl)-6-methyl-5,7-dihydro-4H-pyrazolo[1,5-a]pyridin-3-yl]-1H-pyrazolo[3,4-b]pyridine]
24	2	Fc1ccc(-c2nn3c(c2-c2ccnc4[nH]ncc24)OCC2(CC2)C3)nc1 [Example 460, 2′-(5-Fluoropyridin-2-yl)-3′-(1H-pyrazolo[3,4-b]pyridin-4-yl)-5′H,7′H-spiro[cyclopropane-1,6′-pyrazolo[5,1-b][1,3]oxazine]]
39	4	[2H]C([2H])([2H])OC([2H])([2H])[C@]1(F)CCc2c(-c3cc(C)nc4[nH]ncc34)c(-c3ccc(F)cn3)nn2C1 (single isomer, unassigned) [Example 312, (*S)-4-[6-[(Methoxy-d3)methyl-d2]-6-fluoro-2-(5-fluoro-2-pyridyl)-5,7-dihydro-4H-pyrazolo[1,5-a]pyridin-3-yl]-6-methyl-1H-pyrazolo[3,4-b]pyridine]
169	12	Cc1cc(-c2c(-c3ccc(F)cn3)nn3c2CCC(F)(F)C3)c2cn[nH]c2n1 [Example 45, 4-(6,6-Difluoro-2-(5-fluoropyridin-2-yl)-4,5,6,7-tetrahydropyrazolo[1,5-a]pyridin-3-yl)-6-methyl-1H-pyrazolo[3,4-b]pyridine]
12	2	Cc1cc(-c2c(-c3ccc(F)cc3)nn3c2CCC(F)(F)C3)c2cn[nH]c2n1 [Example 43, 4-[6,6-Difluoro-2-(4-fluorophenyl)-5,7-dihydro-4H-pyrazolo[1,5-a]pyridin-3-yl]-6-methyl-1H-pyrazolo[3,4-b]pyridine]
32	4	Fc1ccc(-c2nn3c(c2-c2ccnc4[nH]ncc24)C[C@@H]2C[C@@H]23)nc1 [Example 26, (4aS,5aS)-2-(5-Fluoropyridin-2-yl)-3-(1H-pyrazolo[3,4-b]pyridin-4-yl)-4,4a,5,5a-tetrahydrocyclopropa[4,5]pyrrolo[1,2-b]pyrazole]
34	4	COC[C@]1(F)CCc2c(-c3cc(C)nc4[nH]ncc34)c(-c3ccc(F)cn3)nn2C1 (single isomer, unassigned) [Example 304, (*S)-4-[6-Fluoro-2-(5-fluoro-2-pyridyl)-6-(methoxymethyl)-5,7-dihydro-4H-pyrazolo[1,5-a]pyridin-3-yl]-6-methyl-1H-pyrazolo[3,4-b]pyridine]
